Assay results from the NIST ThermoML archive (doi:10.1021/je800701j).

Assays:
[1] = xn = mol fraction of the nth substance listed; details: 101 kPa, Liquid, Pycnometric method
[2] = 101 kPa, Liquid, Pycnometric method

CC(=O)[O-].CCn1cc[n+](C)c1 [1-ethyl-3-methylimidazolium acetate] + CCn1cc[n+](C)c1.O=C([O-])C(F)(F)F
[1], x2 = 0
Details	mass density [kg/m3]
298.1 K	1102
323.1 K	1086
348.1 K	1073
373.1 K	1059

CCn1cc[n+](C)c1.O=C([O-])C(F)(F)F [1-ethyl-3-methylimidazolium trifluoroacetate]
[2]
Details	mass density [kg/m3]
298.1 K	1301
323.1 K	1283
348.1 K	1264
373.1 K	1250

CC(=O)[O-].CCn1cc[n+](C)c1 [1-ethyl-3-methylimidazolium acetate]
[2]
Details	mass density [kg/m3]
298.1 K	1102
323.1 K	1086
348.1 K	1073
373.1 K	1059

CCn1cc[n+](C)c1.O=C([O-])C(F)(F)F [1-ethyl-3-methylimidazolium trifluoroacetate] + CC(=O)[O-].CCn1cc[n+](C)c1
mass density [kg/m3], [1]
Details	298.1 K	323.1 K	348.1 K	373.1 K
x1 = 0.2464	1152	1136	1121	1107
x1 = 0.5002	1204	1189	1172	1157
x1 = 0.7468	1252	1235	1217	1202
x1 = 1	1301	1283	1264	1250
